In PubChem BioAssay (NCI) one finds TGI and GI50 data, which are given here for twelve molecules.

SMILES strings stand for the structures. Where “and” joins values, the source holds several entries; their conditions need not be identical. Equal entries are not always repeated.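 Where inhibition never reached the appropriate level, the endpoint shown equals the highest concentration tested. Otherwise, values were interpolated linearly from a five-concentration, 48-hour dose response in 96-well plates. GI50 is the concentration that inhibits growth by half. The concentration for full growth arrest is given as TGI.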

Common to all, as to experiment: DTP human tumour cell line panel, 48 h
In experiment [1] the test system is A549 NSCLC.
Experiment [2] has as its system HOP-92 NSCLC.
Experiment [3] has as its system M14 melanoma.
In experiment [4] the test system is MOLT-4 leukemia.
The test system of experiment [5] is NCI-H226 lung.
Experiment [6] has as its system SK-MEL-5 melanoma.
The subject of experiment [7] is SN12C renal.
Experiment [8] deals with T-47D breast.
For experiment [9], the system named is U251 CNS.
In experiment [10] the test system is UACC-62 melanoma.

One may read the TGI as the concentration at which net growth stops. Higher therefore signals lower sensitivity of the cells. On to `COc1ccccc1N=C1SCCN1C(=S)Nc1ccc(S(=O)(=O)/N=C/N(C)C)cc1`, for which the TGI in experiment [1] is greater than 100 µM; in [2] it was greater than 100 µM; in experiment [3] it was greater than 100 µM; in [4] it was greater than 100 µM; in [5], greater than 100 µM; in experiment [6] it was 37 µM. Besides, the TGI was greater than 100 µM in [7], greater than 100 µM in experiment [8], greater than 100 µM in experiment [9] and 75.9 µM in [10].

`CCCCNC(=S)Nc1nc(C(=O)NNC(=O)c2ccccc2)cs1`: the total growth inhibition concentration (TGI) was 55.2 µM in experiment [1]; greater than 100 µM in experiment [2]; 28.6 µM in experiment [3]; greater than 100 µM in experiment [4]; 67.8 µM in [5]; 22.7 µM in experiment [6]. The concentration for total growth inhibition (TGI) in experiment [7] is 38 µM; in [8], 39.4 µM; in experiment [9], greater than 100 µM; in [10], 41.4 µM.

Take `CC(/C=N/NC1=NCCCN1)=N\NC1=NCCCN1`: the TGI in [1], in experiment [2], in experiment [3], in experiment [4], in experiment [5] and in [6] was greater than 100 µM in each case. The TGI in experiment [7], in experiment [8], in experiment [9] and in experiment [10] was greater than 100 µM throughout.

For orientation: GI50 means the concentration giving 50% growth inhibition. In the case of `COc1ccc2[nH]c(O)c(/C=c3/cc4c(c(-c5ccc(F)cc5)n3)=Nc3ccccc3-4)c2c1`, the GI50 was 2.31 µM in experiment [1]; 13.6 µM in experiment [2]; 1.98 µM in experiment [3]; 1.97 µM in [4]; 34.2 µM in experiment [5]; 3.47 µM in experiment [6]. In addition, the GI50 in experiment [7] is 4.19 µM; in experiment [8] it was 2.06 µM; in experiment [9], 1.68 µM; in [10] it was 1.54 µM. In addition, the TGI is 6.34 µM in [1]; 41.3 µM in experiment [2]; 3.85 µM in [3]; 5.21 µM in [4]; greater than 100 µM in experiment [5]; 15.8 µM in [6]. In addition, the TGI is 18.8 µM in experiment [7], 6.94 µM in experiment [8], 3.26 µM in experiment [9] and 3.2 µM in [10].

`CC(=O)C1(O)Cc2c(O)c3c(c(O)c2C(OC2CC(N)C(O)C(C)O2)C1)C(=O)c1ccccc1C3=O` (centres undefined): the TGI in experiment [1] was 0.338 µM; in [2], 0.867 µM and 0.413 µM; in experiment [3], 0.605 µM and 0.158 µM; in experiment [4], 0.0122 µM and < 0.109 µM; in experiment [5] it was 0.139 µM and 0.0538 µM; in experiment [6] it was 0.33 µM and 0.0697 µM. The TGI in experiment [7] is 0.115 µM and 0.163 µM; in experiment [8], 0.631 µM and 0.219 µM; in experiment [9], 0.419 µM and 0.13 µM; in [10], 0.306 µM and 0.0842 µM. In addition, the GI50 in experiment [2] was 0.0165 µM; in experiment [3] it was 0.0145 µM; in experiment [4], 0.00182 µM; in experiment [5], less than 0.0113 µM; in experiment [6], less than 0.0119 µM; in experiment [7] it was less than 0.0117 µM. Moreover, the GI50 in experiment [8] is less than 0.0145 µM; in experiment [9] it was less than 0.0115 µM; in [10] it was less than 0.0123 µM.

For `COC(=O)C(Cc1nc2ccccc2[nH]c1=O)C(=O)C(=O)Nc1cc(C(F)(F)F)ccc1Cl` (centres undefined), the TGI was greater than 100 µM in experiment [1]; 32.5 µM in [2]; 30.9 µM in experiment [3]; 48.2 µM in experiment [4]; 35.1 µM in [5]; 56 µM in [6]. Besides, the TGI in experiment [7] was 54.8 µM; in [8] it was 44.7 µM; in experiment [9] it was 66.6 µM; in experiment [10], 53.4 µM.

For `Cc1cc(C)c(N=Nc2c(O)c(S(=O)(=O)O)cc3cc(S(=O)(=O)O)ccc23)cc1C`, the TGI in [1], in experiment [2], in [3], in experiment [4], in [5] and in experiment [6] was greater than 100 µM in each case. Moreover, the TGI in experiment [7], in experiment [8], in experiment [9] and in experiment [10] was greater than 100 µM throughout.

As to `Nc1ccc(-c2nc3ccccc3s2)cc1Br`, the TGI in experiment [1], in [2], in [3], in [4], in experiment [5] and in [6] was greater than 100 µM each time. Besides, the total growth inhibition concentration (TGI) in experiment [7], in experiment [8], in [9] and in experiment [10] was greater than 100 µM each time.

Consider `C=CC(Br)(CBr)CCC(Br)C(C)C` (centres undefined), for which the concentration for total growth inhibition (TGI) in experiment [1] worked out at 28.5 µM; in experiment [2] it was 23.2 µM; in experiment [3], 15.3 µM; in experiment [4] it was 5.21 µM; in [5], 30.8 µM; in [6], 17.7 µM. Besides, the TGI in experiment [7] worked out at 27.2 µM; in experiment [8] it was 0.971 µM; in experiment [9] it was 12.6 µM; in experiment [10] it was 12.5 µM.

For `COC(=O)[C@H](CCSC)NC(=O)c1ccc(CNC(=O)/C(C)=C/c2ccccc2)cc1`, the TGI is greater than 100 µM in experiment [1]; 72.2 µM in experiment [2]; 83.7 µM in experiment [3]; greater than 100 µM in [4]; greater than 100 µM in [5]; greater than 100 µM in [6]. In addition, the TGI in experiment [7], in experiment [8], in experiment [9] and in [10] was greater than 100 µM each time.

For `COc1cc(C=O)cc(C=Nc2ccc(S(N)(=O)=O)cc2)c1O`, the TGI in experiment [1] was greater than 100 µM; in [2] it was 21.7 µM; in [3], 14.6 µM; in experiment [4] it was 64.2 µM; in [5], 9.58 µM; in experiment [6], 23 µM. Further, the total growth inhibition concentration (TGI) in [7] is 35.5 µM; in experiment [8], greater than 100 µM; in [9] it was greater than 100 µM; in experiment [10], greater than 100 µM.

For the molecule `O=C1OC(=O)C2C1C(c1ccccc1[N+](=O)[O-])C=C(c1ccco1)N2c1ccncc1` (centres undefined), the TGI in [1] was 31.6 µM; in [2] it was 15.8 µM; in experiment [3], greater than 50.5 µM; in experiment [4] it was 6.38 µM; in experiment [5], greater than 39.2 µM; in experiment [6], 19.7 µM. In addition, the TGI in experiment [7] amounted to 25 µM; in experiment [8], 14 µM; in [9], 12 µM; in [10], 36.4 µM.
